Assay results from publication PMC7662523, “Evaluation of Polyhedral Oligomeric Silsesquioxane Porphyrin Derivatives on Photodynamic Therapy” (Molecules, 2020).

What was measured:
[1] = Singlet oxygen quantum yield, indirect method with DMA as 1O2 probe in DMF; assay type: physicochemical; conditions: for ΦΔ (1O2 quantum yield): DMA probe, irradiated at 515 nm, relative to TPP (ΦΔ = 0.62), n = 3
Protocol: The ^1O2 quantum yield (ΦΔ) of the POSSP compounds in dimethyl formamide (DMF) was indirectly determined using 9,10-dimethylanthracene (DMA) as ^1O2 probe. DMA reacts with ^1O2, undergoing a 1,4-cycloaddition that is detected as a decrease in the intensity of the DMA absorption band at 379 nm.
The ^1O2 quantum yields (ΦΔ) were determined through an indirect method using dimethylanthracence (DMA) as the singlet oxygen probe. Several solutions containing DMF were air saturated and prepared with DMA (50 μM) and the POSSPs or parent porphyrins (TPP, ATPP, TAPP and compound 6) (5 μM). These solutions were covered with aluminum foil to avoid any premature quenching. Quartz cuvettes (1 cm × 1 cm) were filled with 1 mL of the solution, placed in a spectrofluorophotometer (xenon lamp, Shimadzu RF-5301 PC) and irradiated at 515 nm for 600 s. The absorbance decay of DMA was monitored at 380 nm, which was corrected from light scattering by subtracting the spectra of POSSPs. The ΦΔ was calculated using Equation (2). Φ∆,S = Φ∆,R (mSample/mRerefence) (1−10^−absReference/1−10^−absSample)(2) where Φ∆,S is the singlet oxygen quantum yield of the sample and m is the slope of the plotted data relative to the area of the emission peak against the absorption of the reference.

MDA-MB-231 cells [2] = experiment: In vitro phototoxicity, MTS assay after red light (630 nm) irradiation; assay type: cell-based, human; conditions: for phototoxicity (in words): highest concentration evaluated (0.5 µM), 630 nm light; for reduction in cell proliferation: 0.5 µM, 48 h incubation, 630 nm 24.5 mW/cm2 20 min
Protocol: (§1) The phototoxicities of ATPP, TAPP, compound 6 and POSSPs 1–5 were tested by using the MTS assay. For this study, MDA-MB-231 cells were seeded in a 96-well plate at a density of 5 × 10^3 cells per well in 100 µL of complete media and incubated at 37 °C in 5% CO2 atmosphere for 24 h. After removing the cell culture medium, POSSPs 1–5 at different concentrations (0.01–0.5 µM) were prepared in cell media from a stock solution in DMSO with a final volume of the organic solvent not larger than 1% vol. After 48 h of incubation in the presence of POSSPs, the culture media was removed, and the cells were washed twice with phosphate buffer solution. MDA-MB-231 cells were illuminated with the red light (630 nm) at a fluence rate of 24.5 mW/cm^2 for 20 min. Control experiments were maintained in the same conditions, but in the dark for the same interval of time. After irradiation, the media was replaced by fresh media and the cells were allowed to grow for an additional 24 h. The cyto- and phototoxicities of compound 6 and POSSPs 4 and 5 were also evaluated following the above described protocol, but using concentrations ranging 0.01–100 µM.
To quantify the phototoxic or dark toxicity effects of the experiments above described, the treated MDA-MB-231 cells were subjected to cell viability assay using the CellTiter 96® Aqueous solution assay. To perform the assay, the cell media was removed, and the cells were washed once with phosphate buffer solution. Fresh media (100 µL) together with 20 µL of CellTiter 96® was added into each well and incubated for 2–3 h at 37 °C in 5% CO2 atmosphere. Cell viability (%) was calculated as follows: viability = (Asample/Acontrol) × 100%, where Asample and Acontrol denote absorbance values of the sample and control wells measured at 490 nm, respectively. The results are reported as the average ± SD of three experiments. The IC50 values were determined using GraphPad Prism (v8.1.2 for macOS, La Jolla California, CA, USA) fitting the viability data to a sigmoidal curve mathematical model.

MDA-MB-231 cells [3] = experiment: Cell internalization by flow cytometry (percentage of positive cells); assay type: cell-based, human; conditions: 0.5 µM, 24 h
Protocol: Six-well plates were prepared with 1 × 10^5 MDA-MB-231 cells per well in complete RPMI media (2 mL) and incubated at 37 °C in 5% CO2 for 48 h. The media was removed from each well and media solutions of control porphyrin (ATPP) and POSSPs 1–5 (2 mL, 0.5 µM) were added to the wells. The cells were incubated at 37 °C in 5% CO2 atmosphere for 24 h. The cell media was removed from the wells, and the cells were washed with phosphate buffer solution two times. The cells were incubated for 3–5 min in the presence of trypsin (500 µL). Cells were removed and transferred to a centrifuge tube. Media (500 µL) was added to each well to remove any remaining cells and mixed with the previous solution. The cell pellet was obtained after centrifugation (2.5k RPM, 10 min). The supernatant was discarded, and phosphate buffer solution (500 µL) was added to each tube. The cell pellet was mixed and transferred to flow cytometry tubes. The cell internalization of POSSP compounds was measured as the percentage of positive cells using a flow cytometer (BD LSRFortessa).

[4] = Partition coefficient (log POW) from n-butanol/water measurement; assay type: physicochemical; conditions: n-butanol/water measured at 25 °C, converted with calibration equation
Protocol: The log POW values of the POSSPs and controls were first measured in an n-butanol/water mixture, and then correlated with corresponding values in n-octanol/water using a calibration curve reported in the literature. Distilled water and butanol were thoroughly mixed for 24 h at 25 °C to achieve solvent saturation in both phases. Then, the porphyrin derivatives were added to the mixture and the phases separated through a separatory funnel. The UV–Vis absorbance of the compounds in water and n-butanol was recorded at 420 nm. logPBW = log[(Ab/Aw)(Vw/Vb)](3) where Ab is the absorbance of n-butanol phase; AW is the absorbance of water phase; VW is the volume of water; and Vb is the volume of n-butanol. The partition coefficient of porphyrin derivatives in n-butanol/water was obtained using Equation (3). The log POW values were calculated using Equation (4). logPOW = −0.54 + 1.55 log(PBW)(4)

[5] = Fluorescence quantum yield, comparative method relative to TPP; assay type: physicochemical; conditions: air-saturated, excitation 520 nm, relative to TPP in benzene, n = 3
Protocol: The fluorescence quantum yields (ΦF) were determined to indirectly characterize the efficiency with which the POSSP compounds undergo intersystem crossing (ISC) from the excited state to the triplet state, an essential step in ROS generation. […] In the case of POSSPs 4 and 5, no differences in the ΦF values were observed.
The fluorescence quantum yields for air-saturated solutions (ΦF) in THF (POSSPs 1–3) or DMSO (POSSPs 4 and 5) were determined using the comparative method. TPP was used as a reference with a fluorescence quantum yield of 0.12 in benzene. The POSSPs concentrations ranged from 0.1 to 10 µM (THF) for POSSPs 1–3 and from 3 to 15 µM (DMSO) for POSSPs 4 and 5. The excitation wavelength was 520 nm and the excitation and emission slit width were 2 nm. The fluorescence quantum yields were measured according to the comparative method described by Equation (1).

MDA-MB-231 cells [6] = experiment: In vitro cytotoxicity in the absence of light, MTS assay; assay type: cell-based, human; conditions: concentrations 0.01–100 µM, Figure S7
Protocol: as §1, with “MDA-MB-231 cells were illuminated with the red light (630 nm) at a fluence rate of 24.5 mW/cm^2 for 20 min. Control experiments were maintained in the same conditions, but in the dark for the same interval of time. After irradiation, the media was replaced by fresh media and the cells were allowed to grow for an additional 24 h.” left out
To quantify the phototoxic or dark toxicity effects of the experiments above described, the treated MDA-MB-231 cells were subjected to cell viability assay using the CellTiter 96® Aqueous solution assay. […] Cell viability (%) was calculated as follows: viability = (Asample/Acontrol) × 100%, where Asample and Acontrol denote absorbance values of the sample and control wells measured at 490 nm, respectively. […] The IC50 values were determined using GraphPad Prism (v8.1.2 for macOS, La Jolla California, CA, USA) fitting the viability data to a sigmoidal curve mathematical model.

[7] = reference value used for calculation; cited from earlier work
[8] = design: method as in PMID 10911728; conditions: in benzene; cited from earlier work

| Structure (SMILES) | phototoxicity (in words) (MDA-MB-231 cells [2]) | internalization in cells (in words) (MDA-MB-231 cells [3]) | ΦΔ (1O2 quantum yield) [1] | log POW (in words) [4] | ΦF (fluorescence quantum yield) ([5]; in THF) | reduction in cell proliferation (MDA-MB-231 cells [2]) [%] | ΦF (fluorescence quantum yield) ([5]; in DMSO) | further results |
| --- | --- | --- | --- | --- | --- | --- | --- | --- |
| Nc1ccc(-c2c3nc(c(-c4ccccc4)c4ccc([nH]4)c(-c4ccccc4)c4nc(c(-c5ccccc5)c5ccc2[nH]5)C=C4)C=C3)cc1 [ATPP, 5-(4-aminophenyl)-10,15,20-(triphenyl)porphyrin, reference compound] | minimal PDT effect | high internalization | – | – | – | – | – | ΦΔ value (in words) ([1]; Table S1): low ΦΔ value |
| CC(C)C[Si]12O[Si]3(CCCNC(=O)Nc4ccc(-c5c6nc(c(-c7ccccc7)c7ccc([nH]7)c(-c7ccccc7)c7nc(c(-c8ccccc8)c8ccc5[nH]8)C=C7)C=C6)cc4)O[Si]4(CC(C)C)O[Si](CC(C)C)(O1)O[Si]1(CC(C)C)O[Si](CC(C)C)(O2)O[Si](CC(C)C)(O3)O[Si](CC(C)C)(O4)O1 [POSSP 1] | – | – | 0.82 ± 0.01 | positive values | 0.14 ± 0.01 | 43 ± 4 | – | – |
| O=C(NCCC[Si]12O[Si]3(c4ccccc4)O[Si]4(c5ccccc5)O[Si](c5ccccc5)(O1)O[Si]1(c5ccccc5)O[Si](c5ccccc5)(O2)O[Si](c2ccccc2)(O3)O[Si](c2ccccc2)(O4)O1)Nc1ccc(-c2c3nc(c(-c4ccccc4)c4ccc([nH]4)c(-c4ccccc4)c4nc(c(-c5ccccc5)c5ccc2[nH]5)C=C4)C=C3)cc1 [POSSP 2] | did not show significant phototoxicity | internalized in a much higher percentage than the other POSSPs | 0.60 ± 0.02 | positive values | 0.13 ± 0.01 | – | – | – |
| NCCC[Si]12O[Si]3(CCCN)O[Si]4(CCCN)O[Si](CCCN)(O1)O[Si]1(CCCN)O[Si](CCCN)(O2)O[Si](CCCN)(O3)O[Si](CCCNC(=O)c2ccc(-c3c5nc(c(-c6ccccc6)c6ccc([nH]6)c(-c6ccccc6)c6nc(c(-c7ccccc7)c7ccc3[nH]7)C=C6)C=C5)cc2)(O4)O1 [POSSP 4] | – | – | 0.70 ± 0.01 | Negative log POW values | – | 11 ± 2 | 0.15 ± 0.01 | – |
| C[N+](C)(C)CCC[Si]12O[Si]3(CCCNC(=O)c4ccc(-c5c6nc(c(-c7ccccc7)c7ccc([nH]7)c(-c7ccccc7)c7nc(c(-c8ccccc8)c8ccc5[nH]8)C=C7)C=C6)cc4)O[Si]4(CCC[N+](C)(C)C)O[Si](CCC[N+](C)(C)C)(O1)O[Si]1(CCC[N+](C)(C)C)O[Si](CCC[N+](C)(C)C)(O2)O[Si](CCC[N+](C)(C)C)(O3)O[Si](CCC[N+](C)(C)C)(O4)O1 [POSSP 5] | did not show significant phototoxicity | – | 0.66 ± 0.01 | Negative log POW values | – | – | 0.10 ± 0.01 | cytotoxicity at higher concentrations (in words) (MDA-MB-231 cells [6]): structural properties of the molecule also play a role in its toxicity |
| C1=Cc2nc1c(-c1ccccc1)c1nc(c(-c3ccccc3)c3ccc([nH]3)c(-c3ccccc3)c3ccc([nH]3)c2-c2ccccc2)C=C1 [TPP, 5,10,15,20-(tetraphenyl)porphyrin] | – | – | – | – | – | – | – | ΦΔ (1O2 quantum yield) of reference [7]: 0.62; fluorescence quantum yield of reference [8]: 0.12 |
